Test results: patent publication US11358930B2, “Selective potassium channel agonists” (University of Pittsburgh—Of the Commonwealth System of …, priority 2018, dated 2022)
Entries after “also recorded” stand apart in the source; their conditions may differ.

Experiments:
[1] = target: KCNQ2/3 (Homo sapiens, UniProt O43525+O43526); conditions: read-out: EC50 (KCNQ2/3 activator); cited from earlier work
[2] = target: T1, Kv7.2/Kv7.3 (Homo sapiens, UniProt O43525+O43526); test: Automated electrophysiology IonWorks Barracuda (IWB) agonist assay in HEK293 cells, Kv7.2/Kv7.3; format: cell-based; conditions: for EC2x at Kv7.2/Kv7.3 (agonist concentration that doubles the conductance at the voltage leading to 15% channel activation): HEK293 cells, IWB, 10-point concentration-response; for selectivity index SI = EC2x(Kv7.4/Kv7.5)/EC2x(Kv7.2/Kv7.3): higher SI = better selectivity for Kv7.2/Kv7.3
T1 construct: expressed in transfected cells; host or cells: HEK293
Procedure: (§1) Biological evaluation of the new analogs, including RL-81 as a positive standard was performed in the Eli Lilly Open Innovation Drug Discovery (OIDD) program (now discontinued; see https://openinnovation.lilly.com/dd/login.jsp). Ion channel agonistic potency was determined in a high-throughput assay using the automated electrophysiology IonWorks® Barracuda™ (IWB) platform (Molecular Devices, LLC) in HEK293 cells. The resulting 10-point concentration-response curves provide a measure of compound efficacy by determining the agonist concentration that doubles the conductance at the voltage leading to 15% channel activation (EC2x).
Since the primary interest was in optimizing central (Kv7.2/Kv7.3) over peripheral Kv7.4/Kv7.5) tissue activities, a selectivity index (SI) was calculated as the inverse ratio of the EC2x values for these two channel types: SI=EC2x(Kv7.4/Kv7.5)/EC2×(Kv7.2/Kv7.3) The higher the SI ratio, the better the selectivity of the agent for the Kv7.2/Kv7.3 channels.

[3] = target: T2, Kv7.3/Kv7.5 (Homo sapiens, UniProt O43525+Q9NR82); test: Automated electrophysiology IonWorks Barracuda (IWB) agonist assay in HEK293 cells, Kv7.3/Kv7.5; format: cell-based
T2 construct: expressed in transfected cells; host or cells: HEK293
Procedure: as §1

[4] = target: T3, Kv7.4 (Homo sapiens, UniProt P56696); test: Automated electrophysiology IonWorks Barracuda (IWB) agonist assay in HEK293 cells, Kv7.4; format: cell-based
T3 construct: expressed in transfected cells; host or cells: HEK293
Procedure: as §1

[5] = target: T4, Kv7.4/Kv7.5 (Homo sapiens, UniProt P56696+Q9NR82); test: Automated electrophysiology IonWorks Barracuda (IWB) agonist assay in HEK293 cells, Kv7.4/Kv7.5; format: cell-based
T4 construct: expressed in transfected cells; host or cells: HEK293
Procedure: as §1

[6] = system: all tested Kv7 channels; test: Automated electrophysiology IonWorks Barracuda (IWB) agonist assay in HEK293 cells, all tested Kv7 channels; format: cell-based; conditions: for activity at all Kv7 channel types (in words): HEK293 cells, IWB
Procedure: as §1

CCOC(=O)Nc1ccc(NCc2ccc(F)cc2)cc1N [retigabine]
EC50 [1]: 330 nM

CCOC(=O)Nc1ccc(NCc2ccc(C(F)(F)F)cc2F)c(F)c1N [RL-18, Ethyl (2-amino-3-fluoro-4-((2-fluoro-4-(trifluoromethyl)benzyl)amino)phenyl)carbamate]
EC2x at Kv7.2/Kv7.3 (agonist concentration that doubles the conductance at the voltage leading to 15% channel activation) [2]: 0.18 ± 0.11 µM | selectivity index SI = EC2x(Kv7.4/Kv7.5)/EC2x(Kv7.2/Kv7.3) [2]: 1.7

Nc1c(NC(=O)OC2CC2)cc(F)c(NCc2ccc(C(F)(F)F)cc2F)c1F [RL-36, Cyclopropyl (2-amino-3,5-difluoro-4-((2-fluoro-4-(trifluoromethyl)benzyl)amino)phenyl)carbamate]
selectivity index SI = EC2x(Kv7.4/Kv7.5)/EC2x(Kv7.2/Kv7.3) [2]: > 10 | agonist activity at Kv7.3/Kv7.5 (in words) [3]: lacked agonist activity | agonist activity at Kv7.4 (in words) [4]: lacked agonist activity | agonist activity at Kv7.4/Kv7.5 (in words) [5]: lacked agonist activity

CCOC(=O)Nc1ccc(NCc2cccc(C(F)(F)F)c2)c(F)c1N [RL-73, Ethyl (2-amino-3-fluoro-4-((3-(trifluoromethyl)benzyl)amino)phenyl)carbamate]
selectivity index SI = EC2x(Kv7.4/Kv7.5)/EC2x(Kv7.2/Kv7.3) [2]: 4.7 | potency at Kv7.2/Kv7.3 compared with RL-81 (more potent) ([2]; relative to RL-81): twice as potent

CCOC(=O)Nc1ccc(NCc2ccc(C(F)(F)F)cc2)c(F)c1N [RL-81, Ethyl (2-amino-3-fluoro-4-((4-(trifluoromethyl)benzyl)amino)phenyl)carbamate]
selectivity index SI = EC2x(Kv7.4/Kv7.5)/EC2x(Kv7.2/Kv7.3) [2]: 0.3 | EC2x at Kv7.3/Kv7.5 [3]: 0.29 µM | EC2x at Kv7.4 [4]: 0.10 µM | efficacy versus flupirtine (FP), times higher ([6]; at all tested Kv7 channels): 8-50 times | efficacy versus retigabine (RG), in words ([6]; at all tested Kv7 channels): comparable | EC50 [1]: 260 nM

CCOC(=O)Nc1ccc(NCc2ccc(C(F)(F)F)nc2)c(F)c1N [RL-24, Ethyl (2-amino-3-fluoro-4-(((6-(trifluoromethyl)pyridin-3-yl)methyl)amino)phenyl)carbamate]
potency compared to 2-pyridyl isomers RL-31 and RL-68 (in words) [2]: essentially equivalent potency | selectivity compared to 2-pyridyl isomers RL-31 and RL-68 (in words) [2]: slightly increased selectivity

Nc1c(NC(=O)OC2CC2)ccc(NCc2ccc(C(F)(F)F)nc2)c1F [RL-67, Cyclopropyl (2-amino-3-fluoro-4-(((6-(trifluoromethyl)pyridin-3-yl)methyl)amino)phenyl)carbamate]
potency compared to 2-pyridyl isomers RL-31 and RL-68 (in words) [2]: essentially equivalent potency | selectivity compared to 2-pyridyl isomers RL-31 and RL-68 (in words) [2]: slightly increased selectivity

CCOC(=O)Nc1ccc(NCc2ccc(F)cc2)nc1N [flupirtine, reference compound]
selectivity index SI = EC2x(Kv7.4/Kv7.5)/EC2x(Kv7.2/Kv7.3) [2]: 1.8 | EC50 [1]: 2000 nM

CCOC(=O)Nc1ccc(NCc2ccc(C(F)(F)F)cn2)c(F)c1N [RL-31, Ethyl (2-amino-3-fluoro-4-(((5-(trifluoromethyl)pyridin-2-yl)methyl)amino)phenyl)carbamate]
selectivity / potency of 2-pyridyl analogs (in words) [2]: either low selectivity or low potency

Nc1c(F)c(NCc2ncc(C(F)(F)F)cc2F)cc(F)c1NC(=O)OC1CC1 [RL-12, Cyclopropyl (2-amino-3,6-difluoro-4-(((3-fluoro-5-(trifluoromethyl)pyridin-2-yl)methyl)amino)phenyl)carbamate]
selectivity index SI = EC2x(Kv7.4/Kv7.5)/EC2x(Kv7.2/Kv7.3) [2]: > 10 | agonist activity at Kv7.3/Kv7.5 (in words) [3]: lacked activity | agonist activity at Kv7.4 (in words) [4]: lacked activity | agonist activity at Kv7.4/Kv7.5 (in words) [5]: lacked activity | agonist activity at other channels (in words) ([6]; channels other than Kv7.2/Kv7.3): no detectable agonist activity

CCOC(=O)Nc1ccc(NCc2ccc(C(F)(F)F)c(C#N)n2)c(F)c1N [RL-23, Ethyl (2-amino-4-(((6-cyano-5-(trifluoromethyl)pyridin-2-yl)methyl)amino)-3-fluorophenyl)carbamate]
selectivity / potency of 2-pyridyl analogs (in words) [2]: either low selectivity or low potency

CCOC(=O)Nc1cc(C(F)(F)F)c(NCc2ccc(C(F)(F)F)cc2)c(F)c1N [RL-073, Ethyl (2-amino-3-fluoro-5-(trifluoromethyl)-4-((4-(trifluoromethyl)benzyl)amino)phenyl)carbamate]
activity at all Kv7 channel types (in words) [6]: completely abrogated activity

CC(C)OC(=O)Nc1ccc(NCc2ccc(C(F)(F)F)cc2)c(F)c1N [RL-32, Isopropyl (2-amino-3-fluoro-4-((4-(trifluoromethyl)benzyl)amino)phenyl)carbamate]
selectivity index SI = EC2x(Kv7.4/Kv7.5)/EC2x(Kv7.2/Kv7.3) [2]: 31 | potency at Kv7.2/Kv7.3 compared with RL-81 (more potent) ([2]; relative to RL-81): slightly increased the potency | SI improvement over RL-81 ([2]; versus SI=0.3 of RL-81): 100 × | EC2x at Kv7.4/Kv7.5 [5]: 4.98 µM

Nc1c(NC(=O)OC2CC2)ccc(NCc2ccc(C(F)(F)F)cc2)c1F [RL-56, Cyclopropyl (2-amino-3-fluoro-4-((4-(trifluoromethyl)benzyl)amino)phenyl)carbamate]
EC2x at Kv7.2/Kv7.3 (agonist concentration that doubles the conductance at the voltage leading to 15% channel activation) [2]: 0.11 ± 0.02 µM | selectivity index SI = EC2x(Kv7.4/Kv7.5)/EC2x(Kv7.2/Kv7.3) [2]: 2.5 | potency at Kv7.2/Kv7.3 compared with RL-81 (more potent) ([2]; relative to RL-81): ca. 3

CCOC(=O)Nc1cc(F)c(NCc2ccc(C(F)(F)F)cc2)cc1N [RL-72, Ethyl (2-amino-5-fluoro-4-((4-(trifluoromethyl)benzyl)amino)phenyl)carbamate]
EC2x at Kv7.2/Kv7.3 (agonist concentration that doubles the conductance at the voltage leading to 15% channel activation) [2]: 1.26 µM | selectivity index SI = EC2x(Kv7.4/Kv7.5)/EC2x(Kv7.2/Kv7.3) [2]: > 7 | reduction of potency (EC2x) at Kv7.2/Kv7.3 versus RL-81 ([2]; relative to RL-81): 5 fold | EC2x at Kv7.3/Kv7.5 [3]: > 10 µM | EC2x at Kv7.4 [4]: 4.65 µM | EC2x at Kv7.4/Kv7.5 [5]: > 10 µM

Nc1c(F)c(NCc2ccc(C(F)(F)F)cc2F)cc(F)c1NC(=O)OC1CC1 [RL-46, Cyclopropyl (2-amino-3,6-difluoro-4-((2-fluoro-4-(trifluoromethyl)benzyl)amino)phenyl)carbamate]
selectivity index SI = EC2x(Kv7.4/Kv7.5)/EC2x(Kv7.2/Kv7.3) [2]: > 7 | activity at all Kv7 channel types (in words) [6]: moderately active

Nc1c(NC(=O)OC2CC2)cc(F)c(NCc2ncc(C(F)(F)F)cc2F)c1F [RL-01, Cyclopropyl (2-amino-3,5-difluoro-4-(((3-fluoro-5-(trifluoromethyl)pyridin-2-yl)methyl)amino)phenyl)carbamate]
selectivity / potency of 2-pyridyl analogs (in words) [2]: either low selectivity or low potency

Nc1c(NC(=O)OC2CC2)ccc(NCc2ccc(C(F)(F)F)cn2)c1F [RL-68, Cyclopropyl (2-amino-3-fluoro-4-(((5-(trifluoromethyl)pyridin-2-yl)methyl)amino)phenyl)carbamate]
selectivity / potency of 2-pyridyl analogs (in words) [2]: either low selectivity or low potency

Nc1c(F)c(NCc2ccc(C(F)(F)F)cc2F)c(F)c(F)c1NC(=O)OC1CC1 [RL-50, Cyclopropyl (2-amino-3,5,6-trifluoro-4-((2-fluoro-4-(trifluoromethyl)benzyl)amino)phenyl)carbamate]
activity at all Kv7 channel types (in words) [6]: lost all activity; also recorded: inactive

CCOC(=O)Nc1ccc(NCc2cccc(S(F)(F)(F)(F)F)c2)c(F)c1N [RL-02, Ethyl (2-amino-3-fluoro-4-((3-(pentafluoro-λ^6-sulfanyl)benzyl)amino)phenyl)carbamate]
selectivity index SI = EC2x(Kv7.4/Kv7.5)/EC2x(Kv7.2/Kv7.3) [2]: 1.8
